The values below come from patent publication US20100040552A1, “METHODS TO EVALUATE GLUCOCORTICOID RECEPTOR AGONISTS AND ANTAGONISTS FOR EFFECTS ON NEURON-LIKE CELLS” (ROSETTA INPHARMATICS LLC, priority 2005, published 2010).

Assay [1] deals with T1, PR (progesterone receptor) (Homo sapiens, UniProt P06401).
T1 sequence (P06401 1-933): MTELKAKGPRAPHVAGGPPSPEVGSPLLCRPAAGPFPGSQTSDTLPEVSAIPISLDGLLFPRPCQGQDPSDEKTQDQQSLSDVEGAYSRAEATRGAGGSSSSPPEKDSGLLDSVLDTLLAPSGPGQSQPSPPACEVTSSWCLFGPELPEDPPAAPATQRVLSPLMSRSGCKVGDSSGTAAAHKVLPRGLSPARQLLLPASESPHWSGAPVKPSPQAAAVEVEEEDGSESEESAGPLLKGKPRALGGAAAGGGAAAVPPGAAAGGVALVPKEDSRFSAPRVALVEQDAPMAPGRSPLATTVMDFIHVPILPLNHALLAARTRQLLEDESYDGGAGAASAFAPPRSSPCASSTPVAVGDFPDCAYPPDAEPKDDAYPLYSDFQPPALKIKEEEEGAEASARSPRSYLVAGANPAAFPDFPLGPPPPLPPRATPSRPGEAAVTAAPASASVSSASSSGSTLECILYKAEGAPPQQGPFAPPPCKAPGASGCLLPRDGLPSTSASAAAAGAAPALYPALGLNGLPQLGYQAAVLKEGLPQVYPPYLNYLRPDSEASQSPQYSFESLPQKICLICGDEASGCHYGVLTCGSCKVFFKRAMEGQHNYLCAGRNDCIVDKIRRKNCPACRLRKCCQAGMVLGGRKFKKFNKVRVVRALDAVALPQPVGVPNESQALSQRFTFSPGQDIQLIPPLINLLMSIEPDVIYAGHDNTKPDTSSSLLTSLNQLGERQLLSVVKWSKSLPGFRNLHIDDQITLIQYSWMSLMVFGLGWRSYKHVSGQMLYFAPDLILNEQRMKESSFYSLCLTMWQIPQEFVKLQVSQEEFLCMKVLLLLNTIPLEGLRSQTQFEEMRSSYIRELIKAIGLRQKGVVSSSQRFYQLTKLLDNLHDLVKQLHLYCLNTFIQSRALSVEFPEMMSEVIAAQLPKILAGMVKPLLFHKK
The assay is described as follows: PR binding study. From the text:
The following abbreviations are used in Table II: MR, mineralocorticoid receptor; GR, glucocorticoid receptor; and PR, progesterone receptor.

A further assay concerns CA77 cells. The assay is described as follows: CA77 cell assay, real-time RT-PCR (TaqMan). Format: cell-based, rat. The settings on record: CA77 cells. The procedure:
Assay: CA77 cells were plated into 96 well tissue culture dishes at a density of 8×10^4 cells per well in 200 μl of PM and the cultures maintained in a humidified air atmosphere (7.5% CO2) at 37° C. This media was aspirated after 24 hours and replaced with 200 μl of GM and the cultures incubated as before, for an additional 48 hours, at which time the cultures were at approximately 90% confluency.
For the evaluation of agonist activity, the GM was aspirated, replaced with 200 μl of fresh GM containing concentrations of a drug ranging from 0.1 nM to 10,000 nM in a 10-fold dilution series. Control wells of 0 nM drug in GM and 0.1% DMSO in GM were included in the series for each drug. Each drug concentration and the two controls were evaluated on 4 wells. The cultures were maintained in a humidified air atmosphere (7.5% CO2) at 37° C. for 24 hours.
Control wells of 0 nM drug in GM containing 250 nM corticosterone and 0.1% DMSO in GM (without corticosterone) were included in the series for each drug. Each drug concentration and the two controls were evaluated on 4 wells. The cultures were maintained in a humidified air atmosphere (7.5% CO2) at 37° C. for 24 hours.
Lysis of Cells and Isolation of mRNA: Two methods were employed for the lysis of the cells and the isolation of mRNA at the end of the 24-hour incubation with the drugs.
One method was the mRNA Catcher™ Method (using Kit number 37001, sold by Invitrogen Corporation). The GM was aspirated from the cells, the cell monolayer was washed once with PBS (product number 10010, sold by Invitrogen Corporation), and then the cells were lysed in 30 μl of the kit lysis buffer containing 1% β-ME for 5 minutes at room temperature. The lysates were snap frozen in the 96-well plate by placing the plate on dry ice pellets, and the plate was then stored at −80° C.
The lysates were thawed at room temperature and then transferred into individual wells in the mRNA Catcher™ plate. The plate was covered and incubated for 90 minutes at room temperature for RNA hybridization. […]
(In general: Real-time PCR tracks product formation cycle by cycle.)

SMILES strings stand for the structures.

In the case of `C[C@@H]1C[C@H]2[C@@H]3CCC4=CC(=O)C=C[C@]4(C)[C@@]3(F)[C@@H](O)C[C@]2(C)[C@@]1(O)C(=O)CO` [Dexamethasone, dexamethasone], the IC50 – broadly, the concentration that inhibits the measured activity by half – in assay [1] is more than 1000 nM. For the same molecule, the “Sult1a1 up-regulation as detected by RT-PCR” value in the assay on CA77 cells is recorded as 158 fold.
